Source: PubChem BioAssay AID1259407 (Chemical Carcinogenesis Research Information System (CCRIS), 2018)
The source made the active and inactive calls. How the calls were made is not given here.

Test system: CCRIS mutagenicity, Ames/micronucleus/aberration tests
Assay: CCRIS mutagenicity studies

CC(=O)Nc1ccc(N)cc1
mutagenic call (Test System: AMES SALMONELLA TYPHIMURIUM, Strain/Indicator: TA97, Metabolic Activation: HAMSTER, LIVER, S-9, AROCLOR 1254 (10%), Method: PREINCUBATION): inactive; negative | mutagenic call (Test System: AMES SALMONELLA TYPHIMURIUM, Strain/Indicator: TA97, Metabolic Activation: NONE, Method: PREINCUBATION): inactive; negative | mutagenic call (Test System: AMES SALMONELLA TYPHIMURIUM, Strain/Indicator: TA97, Metabolic Activation: RAT, LIVER, S-9, AROCLOR 1254 (10%), Method: PREINCUBATION): inactive; negative | mutagenic call (Test System: AMES SALMONELLA TYPHIMURIUM, Strain/Indicator: TA98, Metabolic Activation: HAMSTER, LIVER, S-9, AROCLOR 1254 (10%), Method: PREINCUBATION): active; positive | mutagenic call (Test System: AMES SALMONELLA TYPHIMURIUM, Strain/Indicator: TA98, Metabolic Activation: NONE, Method: PREINCUBATION): inactive; negative | mutagenic call (Test System: AMES SALMONELLA TYPHIMURIUM, Strain/Indicator: TA98, Metabolic Activation: RAT, LIVER, S-9, AROCLOR 1254 (10%), Method: PREINCUBATION): active; positive | mutagenic call (Test System: AMES SALMONELLA TYPHIMURIUM, Strain/Indicator: TA100, Metabolic Activation: HAMSTER, LIVER, S-9, AROCLOR 1254 (10%), Method: PREINCUBATION): inactive; negative | mutagenic call (Test System: AMES SALMONELLA TYPHIMURIUM, Strain/Indicator: TA100, Metabolic Activation: NONE, Method: PREINCUBATION): inactive; negative | mutagenic call (Test System: AMES SALMONELLA TYPHIMURIUM, Strain/Indicator: TA100, Metabolic Activation: RAT, LIVER, S-9, AROCLOR 1254 (10%), Method: PREINCUBATION): inactive; negative | mutagenic call (Test System: AMES SALMONELLA TYPHIMURIUM, Strain/Indicator: TA1535, Metabolic Activation: HAMSTER, LIVER, S-9, AROCLOR 1254 (10%), Method: PREINCUBATION): inactive; negative | mutagenic call (Test System: AMES SALMONELLA TYPHIMURIUM, Strain/Indicator: TA1535, Metabolic Activation: NONE, Method: PREINCUBATION): inactive; negative | mutagenic call (Test System: AMES SALMONELLA TYPHIMURIUM, Strain/Indicator: TA1535, Metabolic Activation: RAT, LIVER, S-9, AROCLOR 1254 (10%), Method: PREINCUBATION): inactive; negative | mutagenic call (Test System: Ames Salmonella typhimurium, Strain/Indicator: TA98, Metabolic Activation: None, Method: Standard Plate): inactive; negative | mutagenic call (Test System: Ames Salmonella typhimurium, Strain/Indicator: TA100, Metabolic Activation: None, Method: Standard Plate): inactive; negative | mutagenic call (Test System: Ames Salmonella typhimurium, Strain/Indicator: TA102, Metabolic Activation: None, Method: Standard Plate): inactive; negative | mutagenic call (Test System: Ames Salmonella typhimurium, Strain/Indicator: TA1535, Metabolic Activation: None, Method: Standard Plate): inactive; negative | mutagenic call (Test System: Ames Salmonella typhimurium, Strain/Indicator: TA1537, Metabolic Activation: None, Method: Standard Plate): inactive; negative | mutagenic call (Test System: UDS RODENT HEPATOCYTES, Strain/Indicator: THY INCORP (NON-S-PHASE), Metabolic Activation: NONE, Method: AUTORADIOGRAPHY): inactive; negative

IC(I)I
mutagenic call (End Point: IN VITRO CHROMOSOMAL ABERRATIONS, Test System: SYRIAN HAMSTER EMBRYO (SHE) CELLS, Metabolic Activation: NONE): inactive; negative; toxicity at 160 and 240 um | mutagenic call (End Point: IN VITRO CHROMOSOMAL ABERRATIONS, Test System: SYRIAN HAMSTER EMBRYO (SHE) CELLS, Metabolic Activation: RAT, LIVER, S-9): inactive; negative | mutagenic call (End Point: In vitro chromosomal aberrations, Test System: D824 human dental pulp cells, Metabolic Activation: None): active; positive (structural changes and ploidy)

Nc1cc(Cl)nc(C(=O)O)c1Cl
mutagenic call (End Point: In vitro chromosomal aberrations, Test System: Primary rat lymphocytes, Metabolic Activation: Rodent S-9): inactive; negative | mutagenic call (Test System: Ames Salmonella typhimurium, Strain/Indicator: TA98, Metabolic Activation: None, Method: Preincubation): inactive; negative; purity 94.5% | mutagenic call (Test System: Ames Salmonella typhimurium, Strain/Indicator: TA98, Metabolic Activation: Rat, Liver, S-9, Aroclor 1254, Method: Preincubation): inactive; negative; purity 94.5% | mutagenic call (Test System: Ames Salmonella typhimurium, Strain/Indicator: TA100, Metabolic Activation: None, Method: Preincubation): inactive; negative; purity 94.5% | mutagenic call (Test System: Ames Salmonella typhimurium, Strain/Indicator: TA100, Metabolic Activation: Rat, Liver, S-9, Aroclor 1254, Method: Preincubation): inactive; negative; purity 94.5% | mutagenic call (Test System: Ames Salmonella typhimurium, Strain/Indicator: TA1535, Metabolic Activation: None, Method: Preincubation): inactive; negative; purity 94.5% | mutagenic call (Test System: Ames Salmonella typhimurium, Strain/Indicator: TA1535, Metabolic Activation: Rat, Liver, S-9, Aroclor 1254, Method: Preincubation): inactive; negative; purity 94.5% | mutagenic call (Test System: Ames Salmonella typhimurium, Strain/Indicator: TA1537, Metabolic Activation: None, Method: Preincubation): inactive; negative; purity 94.5% | mutagenic call (Test System: Ames Salmonella typhimurium, Strain/Indicator: TA1537, Metabolic Activation: Rat, Liver, S-9, Aroclor 1254, Method: Preincubation): inactive; negative; purity 94.5% | mutagenic call (Test System: Chinese hamster ovary cells, Strain/Indicator: CHO-K1-BH4/HGPRT, Metabolic Activation: None, Method: Forward mutation assay): inactive; negative | mutagenic call (Test System: Chinese hamster ovary cells, Strain/Indicator: CHO-K1-BH4/HGPRT, Metabolic Activation: Rat, Liver, S-9, Aroclor 1254, Method: Forward mutation assay): inactive; negative; purity 94.5% | mutagenic call (Test System: E. coli, Strain/Indicator: WP2 UVR A, Metabolic Activation: None, Method: Preincubation): inactive; negative | mutagenic call (Test System: E. coli, Strain/Indicator: WP2 UVRA, Metabolic Activation: Rat, Liver, S-9, Aroclor 1254, Method: Preincubation): inactive; negative
